Measured values from the supplement of paper PMC10307832.

Tests used:
Experiment in all cases: relative viability (nuclei count vs DMSO), 5 days (fraction); higher = more cells survive
BX 795 + Bortezomib = compound: O=C(NCCCNc1nc(Nc2cccc(NC(=O)N3CCCC3)c2)ncc1I)c1cccs1 [BX 795] + CC(C)C[C@H](NC(=O)[C@H](Cc1ccccc1)NC(=O)c1cnccn1)B(O)O [Bortezomib] (partner 0.002 µM)
How it was run: (§1)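 Relative viability divides the nuclei count in treated wells by that in vehicle wells. Lung cancer cell lines were seeded in 1536-well plates, dosed by pin tool the next day, and fixed and stained after 5 days in one step with final 0.05% Triton X-100, 1% formaldehyde and 1 ug/ml Hoechst. Dosing was a single drug or a fixed anchor-drug dose plus five library-drug doses (not always all listed) in √10 steps, and values are medians of duplicate plates imaged at 4×.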

BX 795 + Alpelisib = compound: O=C(NCCCNc1nc(Nc2cccc(NC(=O)N3CCCC3)c2)ncc1I)c1cccs1 [BX 795] + Cc1nc(NC(=O)N2CCC[C@H]2C(N)=O)sc1-c1ccnc(C(C)(C)C(F)(F)F)c1 [Alpelisib] (partner 2 µM)
How it was run: as §1

BX 795 + Decitabine = compound: O=C(NCCCNc1nc(Nc2cccc(NC(=O)N3CCCC3)c2)ncc1I)c1cccs1 [BX 795] + Nc1ncn([C@H]2C[C@H](O)[C@@H](CO)O2)c(=O)n1 [Decitabine] (partner 2 µM)
How it was run: as §1

BX 795 + Navitoclax = compound: O=C(NCCCNc1nc(Nc2cccc(NC(=O)N3CCCC3)c2)ncc1I)c1cccs1 [BX 795] + CC1(C)CCC(c2ccc(Cl)cc2)=C(CN2CCN(c3ccc(C(=O)NS(=O)(=O)c4ccc(N[C@H](CCN5CCOCC5)CSc5ccccc5)c(S(=O)(=O)C(F)(F)F)c4)cc3)CC2)C1 [Navitoclax] (partner 0.5 µM)
How it was run: as §1

BX 795 + Tozasertib = compound: O=C(NCCCNc1nc(Nc2cccc(NC(=O)N3CCCC3)c2)ncc1I)c1cccs1 [BX 795] + Cc1cc(Nc2cc(N3CCN(C)CC3)nc(Sc3ccc(NC(=O)C4CC4)cc3)n2)n[nH]1 [Tozasertib] (partner 0.1 µM)
How it was run: as §1

Cell Line	relative viability (BX 795 + Bortezomib; first compound 0.04 µM)	relative viability (BX 795 + Bortezomib; first compound 0.1265 µM)	relative viability (BX 795 + Bortezomib; first compound 0.4 µM)	relative viability (BX 795 + Bortezomib; first compound 1.265 µM)	relative viability (BX 795 + Alpelisib; first compound 0.04 µM)	relative viability (BX 795 + Alpelisib; first compound 0.1265 µM)	relative viability (BX 795 + Alpelisib; first compound 0.4 µM)	relative viability (BX 795 + Alpelisib; first compound 1.265 µM)	relative viability (BX 795 + Decitabine; first compound 0.04 µM)	relative viability (BX 795 + Decitabine; first compound 0.1265 µM)	relative viability (BX 795 + Decitabine; first compound 0.4 µM)	relative viability (BX 795 + Decitabine; first compound 1.265 µM)	relative viability (BX 795 + Navitoclax; first compound 0.04 µM)	relative viability (BX 795 + Navitoclax; first compound 0.1265 µM)	relative viability (BX 795 + Navitoclax; first compound 0.4 µM)	relative viability (BX 795 + Navitoclax; first compound 1.265 µM)	relative viability (BX 795 + Tozasertib; first compound 0.04 µM)	relative viability (BX 795 + Tozasertib; first compound 0.1265 µM)	relative viability (BX 795 + Tozasertib; first compound 0.4 µM)	relative viability (BX 795 + Tozasertib; first compound 1.265 µM)
HCC-366	1.08	1.1	0.866	1.09	0.462	0.432	0.291	0.113	0.332	0.371	0.31	0.255	0.865	0.977	0.74	0.823	0.228	0.0924	0.0936	0.0708
HCC-827	1.01	1.01	1.06	0.986	1.02	0.975	1.02	0.924	0.416	0.327	0.387	0.303	1.1	0.974	1.05	0.908	0.416	0.45	0.429	0.417
HOP-62	0.51	0.59	0.615	0.682	0.901	0.643	1.24	1	0.241	0.223	0.295	0.296	1.09	1.24	1.21	1.07	0.381	0.441	0.361	0.275
IA-LM	0.655	0.841	0.974	0.54	0.844	0.636	0.614	0.666					0.755	0.725	0.952	0.52				
LCLC-103H	1	1.1	1.15	0.911	0.944	1.1	1.05	1.01	0.714	0.656	0.863	0.631					0.476	0.475	0.477	0.379
LK-2					1.1	1.07	0.952	1.03	0.447	0.266	0.294	0.271	0.873	0.876	0.787	0.608	0.164	0.185	0.16	0.175
NCI-H358					0.95	0.642	0.822	0.281	0.351	0.236	0.339	0.183					0.1	0.107	0.0928	0.098
NCI-H522									0.556	0.657	0.73	0.71					0.57	0.603	0.544	0.569
NCI-H650	0.792	0.761	1.06	0.432	1.09	1.07	1.02	0.7	0.458	0.299	0.458	0.357					0.864	0.769	0.583	0.488
NCI-H661	0.767	0.806	0.695	0.706	0.85	0.834	0.686	0.704	0.683	0.594	0.589	0.533					0.374	0.369	0.378	0.412
NCI-H1395					1.3	0.956	0.663	0.809	0.693	0.774	0.48	0.597	1.23	1.06	0.531	0.837	0.698	0.721	0.601	0.72
NCI-H1563	0.822	0.844	0.993	0.752	0.964	0.859	0.917	0.811												
NCI-H1650	0.219	0.2	0.189	0.193					0.571	0.471	0.548	0.644	1.17	1.12	1.41	0.649	0.548	0.425	0.377	0.25
NCI-H1792	0.963	1.08	1.12	0.954	0.705	0.904	0.706	0.572	0.546		0.588	0.408	0.624	0.556	0.708	0.568				
NCI-H1793					0.675	0.775	0.647	0.613	0.589	0.443	0.674	0.374	0.575	0.362	0.39	0.272	0.372	0.326	0.375	0.213
NCI-H1944					0.959	0.806	0.893	0.754	0.471	0.497	0.534	0.408	1.14	1.11	1.07	0.953	0.286	0.236	0.302	0.243
NCI-H2170					0.859	0.92	0.864	0.751	0.542	0.47	0.48	0.443	0.674	0.62	0.659	0.53	0.724	0.731	0.74	0.712
NCI-H2228	1.03	1.11	0.907	0.308	0.787	0.857	0.828	0.362					0.894	0.811	0.857	0.486	0.283	0.247	0.303	0.217
NCI-H2342									0.87	0.686	0.823	0.641					0.579	0.471	0.507	0.46
SK-MES-1					1.02	0.909	0.925	0.641	0.503	0.358	0.392	0.39	1.26	1.32	1.23	0.886	0.883	0.832	0.905	0.223
SW 900									0.543		0.622	0.485					0.571	0.549	0.657	0.233
